Laboratory results reported in patent US10174023B2, “Heterocyclic-imidazole compounds, pharmaceutical compositions thereof, preparation method therefor and use thereof” (SHANGHAI HUILUN LIFE SCIENCE & TECHNOLOGY CO., LTD, priority 2015, dated 2019).
Read-outs that look alike come from different tables or passages of the source.

How the values were obtained:
MDA-MB-436 cells = experiment: Cell proliferation inhibition assay (CellTiter-Glo, 120 hrs); assay type: cell-based, human; conditions: 120 hrs incubation, read-out: ED50 (MDA-MB-436)
Protocol: Example 2. Cell Proliferation Inhibition Assay
The proliferation inhibitory activity of the compound of the present invention on the breast cancer cell line MDA-MB-436 of triple negative phenotype was tested in vitro.
1. Tumor cell line MDA-MB-436 supplied from HD Biosciences (Shanghai) Co., Ltd., and passed the Mycoplasma detection.
7. CellTiter-Glo Luminescent Cell Viability Assay, Promega, Catalog #: G7571.
Formulation of Compound Solutions
1. Each test compound was formulated into a 60 mM stock solution in DMSO, packaged, and stored in a freezer at −80°. The stock solution of each test compound was serially diluted in DMSO to give solutions at various concentration gradients, including 6 mM, 2 mM, 0.6 mM, 0.2 mM, 60 μM, and 20 μM.
2. Just before experiment, the formulated solution at various concentration gradients of each test compound was aseptically 100-fold diluted in the complete cell culture medium. In this case, the concentration gradients of the test compound included 60 μM, 20 μM, 6 μM, 2 μM, 0.6 μM, and 0.2 μM. These were 2× compound solutions, and could be used to treat the cells.
3. The stock solution of Compounds (1) to (21) and the control compound AZD2281 was serially diluted in DMSO to give solutions at various concentration gradients, including 20 μM, 2 μM, 0.2 μM, 0.02 μM, 0.002 μM, and 0.0002 μM. Before experiment, the formulated solution at various concentration gradients of each test compound was aseptically 100-fold diluted in the complete cell culture medium. The concentration gradients of the positive compound included 200 nM, 20 nM, 2 nM, 0.2 nM, 0.02 nM, and 0.002 nM. These were 2× compound solutions, and could be used to treat the cells.
1. One day before treatment with the compounds, the cells were inoculated into a 96-well plate at a density of 8000 cells/50 μl/well.
2. On the following day, the formulated 2× compound solutions were added, in accordance with a compound arrangement pattern, to the plate in an amount of 50 μl/well.
3. The plate was gently agitaged, and incubated for 120 hrs in an incubator at 37° C.
4. After incubation, the formulated reagent was added to the plate following instruction of the CellTiter Glo reagent, fully mixed, and incubated for 10 min at room temperature in the dark.
5. The plate was analyzed on a plate reader, the chemiluminescence was read, and the data was recorded.
The reading of each well needs to be converted into cell viability. The cell viability can be calculated using the following formula: […]
The processed data was subjected to non-linear regression analysis by using the GraphPad Prism5 analysis software, to obtain a dose-response curve; and the median effective dose (ED50) of test compounds for the MDA-MB-436 cells was calculated.

[1] = test system: Human pancreatic cancer CAPAN-1 cells; experiment: Tumor inhibition in nude mice tumor model transplanted with human pancreatic cancer CAPAN-1 cells; assay type: in vivo, BALB/cA-nude mice; conditions: CAPAN-1 xenograft in nude mice, oral, 50 mg/kg, once a day, consecutive 21 days
Protocol: (§1) Example 3. Test of Tumor Inhibition Effect of Compounds of the Present Invention in Mice The following experiments were conducted to evaluate and compare the effects of the present compound alone in mice tumor models transplanted with human breast cancer cell line MDA-MB-436, human breast cancer cell line MX-1 or human pancreatic cancer cell line CAPAN-1 in vivo.
(§2) Test Compound: Example Compound (4)
(§3) BALB/cA-nude mice, 6-7 weeks, female, available from Shanghai SLAC Laboratory Animal Co., Ltd. Certificate number: SCXK (Shanghai) 2012-0002. Breeding environment: SPF grade.
(§4) The Nude mice were subcutaneously inoculated with human breast cancer MDA-MB-436 cells, human breast cancer MX-1 cells or human pancreatic cancer CAPAN-1 cells. After the tumor grew to 100-200 mm^3, the animals were grouped at random (D0). The tumor volume was measured twice or thrice a week, the body weight of the mice was weighed, and the data was recorded. The tumor volume (V) is calculated by using a formula below: V=½×a×b^2 […]
(§5) in which a, and b denote the length and width. T/C(%)=(T−T0)/(C−C0)×100 in which T are C are the tumor volumes at the end of the experiment; and T0 and C0 are the tumor volumes at the beginning of the experiment.

[2] = test system: Human breast cancer MX-1 cells; experiment: Tumor inhibition in nude mice tumor model transplanted with human breast cancer MX-1 cells; assay type: in vivo, BALB/cA-nude mice; conditions: MX-1 xenograft in nude mice, oral, 50 mg/kg, once a day, consecutive 21 days
Protocol: as §1, §2, §3, §4, §5

[3] = test system: Human breast cancer MDA-MB-436 cells; experiment: Tumor inhibition in nude mice tumor model transplanted with human breast cancer MDA-MB-436 cells; assay type: in vivo, BALB/cA-nude mice; conditions: MDA-MB-436 xenograft in nude mice, oral, 30 mg/kg, once a day, consecutive 14 days
Protocol: as §1, §2, §3, §4, §5

SMILES	IC50 (MDA-MB-436 cells; Homo sapiens) [µM]	other results
O=C(c1cc(Cc2n[nH]c(=O)c3ccccc23)ccc1C(F)(F)F)N1CCN(c2ccc3[nH]cnc3n2)CC1 [Compound (15), 4-(3-(4-(1H-imidazo[4,5-b]pyridin-5-yl)piperazine-1-carbonyl)-4-trifluoromethylbenzyl)phthalazin-1(2H)-one]	23	–
O=C(c1cc(Cc2n[nH]c(=O)c3ccccc23)ccc1F)N1CCN(c2ccc3[nH]cnc3n2)CC1 [Compound (4), 4-(3-(4-(1H-imidazo[4,5-b]pyridin-5-yl)piperazine-1-carbonyl)-4-fluorobenzyl)phthalazin-1(2H)-one]	0.7	Tumor inhibition [1]: 128%; Tumor inhibition [2]: 193%; Tumor inhibition [3]: 191%
O=C(c1cc(Cc2n[nH]c(=O)c3ccccc23)ccc1C(F)(F)F)N1CCN(c2ccc3[nH]nnc3n2)CC1 [Compound (16), 4-(3-(4-(1H-[1,2,3]triazolo[4,5-b]pyridin-5-yl)piperazine-1-carbonyl)-4-trifluoromethylbenzyl)phthalazin-1(2H)-one]	> 25	–
O=C(c1cc(Cc2n[nH]c(=O)c3ccccc23)ccc1F)N1CCN(c2cnc3[nH]cnc3c2)CC1 [Compound (7), 4-(3-(4-(3H-imidazo[4,5-b]pyridin-6-yl)piperazine-1-carbonyl)-4-fluorobenzyl)phthalazin-1(2H)-one]	> 25	–
O=C(c1cc(Cc2n[nH]c(=O)c3ccccc23)ccc1F)N1CCN(c2cc3nc[nH]c3cn2)CC1 [Compound (6), 4-(3-(4-(3H-imidazo[4,5-c]pyridin-6-yl)piperazine-1-carbonyl)-4-fluorobenzyl)phthalazin-1(2H)-one]	18	–
O=C(c1cccc(Cc2n[nH]c(=O)c3ccccc23)c1)N1CCN(c2ccc3[nH]c(C(F)(F)F)nc3n2)CC1 [Compound (12)]	–	IC50 (MDA-MB-436 cells): >25 µM
O=C(c1cc(Cc2n[nH]c(=O)c3ccccc23)ccc1F)N1CCN(c2ccc3[nH]c(=O)[nH]c3n2)CC1 [Compound (5), 4-(4-fluoro-3-(4-(2-oxo-2,3-dihydro-1H-imidazo[4,5-b]pyridin-5-yl)piperazine-1-carbonyl)benzyl)phthalazin-1(2H)-one]	> 25	–
O=C(c1cccc(Cc2n[nH]c(=O)c3ccccc23)c1)N1CCN(c2ccc3[nH]c(=O)[nH]c3n2)CC1 [Compound (9)]	> 25	–
COc1ccc(Cc2n[nH]c(=O)c3ccccc23)cc1C(=O)N1CCN(c2cnc3[nH]cnc3c2)CC1 [Compound (21), 4-(3-(4-(3H-imidazo[4,5-b]pyridin-6-yl)piperazine-1-carbonyl)-4-methoxybenzyl)phthalazin-1(2H)-one]	> 25	–
O=C(c1cc(Cc2n[nH]c(=O)c3ccccc23)ccc1F)N1CCN(c2ccc3[nH]nnc3n2)CC1 [Compound (1), 4-(3-(4-(1H-[1,2,3]triazolo[4,5-b]pyridin-5-yl)piperazine-1-carbonyl)-4-fluorobenzyl)phthalazin-1(2H)-one]	> 25	–
O=C(c1cccc(Cc2n[nH]c(=O)c3ccccc23)c1)N1CCN(c2ccc3[nH]nnc3n2)CC1 [Compound (10), 4-(3-(4-(1H-[1,2,3]triazolo[4,5-b]pyridin-5-yl)piperazine-1-carbonyl)-benzyl)phthalazin-1 (2H)-one]	> 25	–
Cc1nc2nc(N3CCN(C(=O)c4cc(Cc5n[nH]c(=O)c6ccccc56)ccc4F)CC3)ccc2[nH]1 [Compound (2), 4-(4-fluoro-3-(4-(2-methyl-1H-imidazo[4,5-b]pyridin-5-yl)piperazine-1-carbonyl)benzyl)phthalazin-1(2H)-one]	> 25	–
O=C(c1cc(Cc2n[nH]c(=O)c3ccccc23)ccc1F)N1CCN(c2ccc3[nH]c(C(F)(F)F)nc3n2)CC1 [Compound (3)]	–	IC50 (MDA-MB-436 cells): >25 µM
O=C(c1cc(Cc2n[nH]c(=O)c3ccccc23)ccc1C(F)(F)F)N1CCN(c2cc3nc[nH]c3cn2)CC1 [Compound (19), 4-(3-(4-(3H-imidazo[4,5-c]pyridin-6-yl)piperazine-1-carbonyl)-4-trifluoromethylbenzyl)phthalazin-1(2H)-one]	> 25	–
O=C(c1cc(Cc2n[nH]c(=O)c3ccccc23)ccc1C(F)(F)F)N1CCN(c2ccc3[nH]c(=O)[nH]c3n2)CC1 [Compound (17), 4-(3-(4-(2-oxo-2,3-dihydro-1H-imidazo[4,5-b]pyridin-5-yl)piperazine-1-carbonyl)-4-trifluoromethylbenzyl)phthalazin-1(2H)-one]	> 25	–
O=C(c1cc(Cc2n[nH]c(=O)c3ccccc23)ccc1F)N1CCN(C(=O)C2CC2)CC1 [AZD2281, reference compound]	> 25	Tumor inhibition [1]: 57%; Tumor inhibition [2]: 13%; Tumor inhibition [3]: 83%
O=C(c1cc(Cc2n[nH]c(=O)c3ccccc23)ccc1C(F)(F)F)N1CCN(c2cnc3[nH]cnc3c2)CC1 [Compound (20), 4-(3-(4-(3H-imidazo[4,5-b]pyridin-6-yl)piperazine-1-carbonyl)-4-trifluoromethylbenzyl)phthalazin-1(2H)-one]	> 25	–
O=C(c1cc(Cc2n[nH]c(=O)c3ccccc23)ccc1F)N1CCN(c2ncc3[nH]cnc3n2)CC1 [Compound (8), 4-(3-(4-(7H-purin-2-yl)piperazine-1-carbonyl)-4-fluorobenzyl)phthalazin-1(2H)-one]	1.4	–
Cc1nc2nc(N3CCN(C(=O)c4cccc(Cc5n[nH]c(=O)c6ccccc56)c4)CC3)ccc2[nH]1 [Compound (11), 4-(3-(4-(2-methyl-1H-imidazo[4,5-b]pyridin-5-yl)piperazine-1-carbonyl)benzyl)phthalazin-1(2H)-one]	> 25	–
O=C(c1cccc(Cc2n[nH]c(=O)c3ccccc23)c1)N1CCN(c2ccc3[nH]cnc3n2)CC1 [Compound (13), 4-(3-(4-(1H-imidazo[4,5-b]pyridin-5-yl)piperazine-1-carbonyl)benzyl)phthalazin-1(2H)-one]	0.7	–
COc1ccc(Cc2n[nH]c(=O)c3ccccc23)cc1C(=O)N1CCN(c2cc3nc[nH]c3cn2)CC1 [Compound (18), 4-(3-(4-(3H-imidazo[4,5-c]pyridin-6-yl)piperazine-1-carbonyl)-4-methoxybenzyl)phthalazin-1(2H)-one]	> 25	–
COc1ccc(Cc2n[nH]c(=O)c3ccccc23)cc1C(=O)N1CCN(c2ccc3[nH]cnc3n2)CC1 [Compound (14), 4-(3-(4-(1H-imidazo[4,5-b]pyridin-5-yl)piperazine-1-carbonyl)-4-methoxybenzyl)phthalazin-1(2H)-one]	6.8	–
